≈ marks a conversion by molar mass, not a printed value. Calls of active or inactive are those of the source. The rule behind the calls is not given here.
Experiments:
Saccharomyces cerevisiae [1] = test: Compound was evaluated for inhibitory activity against Saccharomyces cerevisiae; 4-6.4; assay type: functional
Candida albicans [2] = test: Compound was evaluated for inhibitory activity against Candida albicans; 4-6.4; assay type: functional
Candida albicans [3] = test: Compound was evaluated for inhibitory activity against Candida albicans; IA= Inactive; assay type: functional, organism-based
Saccharomyces cerevisiae [4] = test: Compound was evaluated for inhibitory activity against Saccharomyces cerevisiae; IA = Inactive; assay type: functional, organism-based
Saccharomyces cerevisiae [5] = test: Compound was evaluated for inhibitory activity against Saccharomyces cerevisiae; 2-3.2; assay type: functional
Candida albicans [6] = test: Compound was evaluated for inhibitory activity against Candida albicans; 2-3.2; assay type: functional
Saccharomyces cerevisiae [7] = test: Compound was evaluated for inhibitory activity against Saccharomyces cerevisiae; 3.2-4; assay type: functional
Candida albicans [8] = test: Compound was evaluated for inhibitory activity against Candida albicans; 3.2-4; assay type: functional
Candida albicans [9] = test: Compound was evaluated for inhibitory activity against Candida albicans; assay type: functional
Saccharomyces cerevisiae [10] = test: Compound was evaluated for inhibitory activity against Saccharomyces cerevisiae; assay type: functional
Saccharomyces cerevisiae [11] = test: Compound was evaluated for inhibitory activity against Saccharomyces cerevisiae; IA= Inactive; assay type: functional, organism-based
Saccharomyces cerevisiae [12] = test: microbe, parasite or virus in culture
Candida albicans [13] = test: microbe, parasite or virus in culture

Compound `BrC1[C@H]2C[C@@H]3C[C@@H](C[C@H]1C3)C2` (some centres undefined) has an MIC (Saccharomyces cerevisiae [1]) of 4 µg/mL (≈ 18.6 µM) and an MIC (Candida albicans [2]) of 4 µg/mL (≈ 18.6 µM).
`Oc1c(I)cc(I)c2cccnc12` was tested, and the MIC (Candida albicans [3]) was “inactive” and the MIC (Saccharomyces cerevisiae [4]) was “inactive”.
For `O=c1sc2sc(=O)sc2s1`, the MIC (Saccharomyces cerevisiae [5]) was 2 µg/mL (≈ 9.6 µM) and the MIC (Candida albicans [6]) was 2 µg/mL (≈ 9.6 µM).
In the case of `CCC(=O)O` [PROPIONIC ACID], the MIC (Saccharomyces cerevisiae [7]) is reported as 3.2 µg/mL (≈ 43.2 µM) and the MIC (Candida albicans [8]) is reported as 3.2 µg/mL (≈ 43.2 µM).
For `Cc1c(Cc2c(C)n(C)n(-c3ccccc3)c2=O)c(=O)n(-c2ccccc2)n1C`, the MIC (Candida albicans [3]) was “inactive” and the MIC (Saccharomyces cerevisiae [4]) was “inactive”.
In the case of `[Cl-].[Cl-].c1ccc(-c2nn(-c3ccccc3)[n+](-c3ccc(-c4ccc(-[n+]5nc(-c6ccccc6)nn5-c5ccccc5)cc4)cc3)n2)cc1` [NEOTETRAZOLIUM CHLORIDE], the MIC (Candida albicans [9]) is reported as < 1.6 µg/mL and the MIC (Saccharomyces cerevisiae [10]) is reported as < 1.6 µg/mL.
`BrCCc1c[nH]c2ccccc12` gave an MIC (Saccharomyces cerevisiae [5]) of 2 µg/mL (≈ 8.92 µM) and an MIC (Candida albicans [6]) of 2 µg/mL (≈ 8.92 µM).
With `CC1(CBr)C2CCC1(CBr)C(=O)C2` (centres undefined) the MIC (Candida albicans [3]) was “inactive” and the MIC (Saccharomyces cerevisiae [11]) was “inactive”.
`O=C(Nc1ccccc1)c1ccccc1O` [SALICYLANILIDE] gave an MIC (Saccharomyces cerevisiae [5]) of 2 µg/mL (≈ 9.38 µM) and an MIC (Candida albicans [6]) of 2 µg/mL (≈ 9.38 µM).
In the case of `Clc1ccc(COC(Cn2ccnc2)c2ccc(Cl)cc2Cl)c(Cl)c1` (centres undefined) [MICONAZOLE], the MIC (Saccharomyces cerevisiae [12]) is reported as 1.6 µg/mL (≈ 3.84 µM), the MIC (Candida albicans [13]) is reported as 1.6 µg/mL (≈ 3.84 µM) and the MIC (Candida albicans [9]) is reported as < 1.6 µg/mL. For the same compound, the MIC (Saccharomyces cerevisiae [10]) was < 1.6 µg/mL.
With `Brc1sc(Br)c(Br)c1Br` the MIC (Candida albicans [3]) was “inactive” and the MIC (Saccharomyces cerevisiae [11]) was “inactive”.

— ChEMBL document CHEMBL1130585, “New antifungals selected by molecular topology” (1998)
